What all share (format): cell-based
The test system of assay [1] is histone acetylation in P. falciparum 3D7-A10. Nature of the assay: Histone acetylation Western blot, wild-type 3D7-A10. The conditions noted are these: trophozoites, 3 h exposure. (In general: In western blotting, separated proteins are transferred to a membrane and probed.)
Description: Synchronous trophozoite-stage (24-32hr post-invasion) cultures at 3–5% parasitemia and 2% hematocrit in complete medium were exposed to test compounds for 3 hr at 37°C. […] DMSO was tested at 0.1% as the vehicle-only control. Following drug exposure, parasites were isolated via saponin lysis ice-cold 0.1% saponin in phosphate-buffered saline (PBS). Isolated parasites were washed 3x in ice-cold PBS containing protease inhibitor cocktail (cOmplete mini, Roche) and lysed in 1x Laemmli Sample Buffer (Biorad) with 5% beta-mercaptoethanol (Sigma-Aldrich). Samples were heated at 99°C for 10 min before centrifugation. Equal quantities of solute were separated on Protean TGX Precast Gels (4–20% gradient) in Tris-SDS-glycine buffer, transferred to nitrocellulose membrane by iblot (Invitrogen), and blocked for 1h in tris-buffered saline (TBS) with 5% skim milk powder. Blocked membranes were probed with antibodies recognising tetra-acetylated H4 (H4ac4, Sigma-Aldrich 06–866), H4K8ac (CST #2594), H3K9ac (CST #9649) or H3 (CST #4499), at 1:1000 dilution, and PfBiP ([Shonhai et al., 2007]) (at 1:5000 dilution) in 3% milk powder TBS with 0.1% Tween 20 at 4°C overnight and with 800CW goat α-rabbit IgG (Licor) at 1:10,000 dilution. Membranes were visualised using a Licor Odyssey CLX imaging system and quantified using ImageJ.
Assay [2] relates to P. falciparum MMV019721-resistant lines (3D7-A10 or Dd2-B2 derived). Nature of the assay: Dose-response assay of MMV019721-selected resistant lines (bulk cultures and clones). The conditions noted are these: Plasmodium falciparum. The protocol: (§1) For in vitro–selected lines, drug susceptibility was measured by SYBR Green I–based assay ([Johnson et al., 2007]; [Smilkstein et al., 2004]). Ring-stage parasites were cultured for 72 hr at 1% hematocrit and 1% starting parasitemia in 384-well black clear-bottom plates containing test compounds plated in triplicate in 12-point serial dilutions. Lysis buffer (0.16% w/v saponin, 1.6% Triton X-100, 5 mM EDTA, and 20 mM Tris-HCl, pH 7.4) with SYBR Green I fluorescent dye (Invitrogen) was added, and fluorescence readings were taken (excitation at 494 nm, emission at 530 nm). Alternatively, Dd2-B2 ring-stage cultures at 0.3% parasitemia and 1% hematocrit were exposed for 72 hr to a range of ten drug concentrations that were 2-fold serially diluted in duplicates along with drug-free controls. Parasite survival was assessed by flow cytometry on an Accuri C6 (BD Biosciences) using SYBR Green and MitoTracker Deep Red FM (Life Technologies) as nucleic acid stain and vital dyes respectively. EC50 values were calculated using a nonlinear regression curve fit in Prism Software version 8 (GraphPad).
(§2) Bulk cultures were tested for reduced drug susceptibility and individual clones were isolated by limiting dilution.

For assay [3], the system named is P. falciparum MMV084978-resistant clones (Dd2-B2 derived). Nature of the assay: Dose-response assay of MMV084978-selected resistant clones. The conditions noted are these: Plasmodium falciparum. The protocol: as §1, with “Ring-stage” for “For in vitro–selected lines, drug susceptibility was measured by SYBR Green I–based assay ([Johnson et al., 2007]; [Smilkstein et al., 2004]). Ring-stage”, “Lysis buffer (0.16% w/v saponin, 1.6% Triton X-100, 5 mM EDTA, and 20 mM Tris-HCl, pH 7.4) with SYBR Green I fluorescent dye (Invitrogen) was added, and fluorescence readings were taken (excitation at 494 nm, emission at 530 nm).” left out
as §2

In general, EC50 refers to the concentration needed to bring the measured effect to its halfway point.

Where two headings read alike, the source gives them in different places. A value given as a limit tells only on which side of the number the result lay.

On to `O=C1C(O)=C([C@H]2CC[C@H](c3ccc(Cl)cc3)CC2)C(=O)c2ccccc21` [Atovaquone, reference compound], for which, in assay [1], the “acetylation of H4K8ac, H3K9ac and tetra-acetylated H4 (H4Ac4) histone markers relative to DMSO” value is given as “no effect”.

Take `CCN(CC)S(=O)(=O)c1ccc(Cl)c(C(=O)Nc2ccc3nc(C)sc3c2)c1` [MMV019721]: the EC50 was 1400 ± 200 nM in assay [2] (MDR1, read-out: MMV019721 mean EC50 (nM) ± SD (n), selection 9, Dd2-B2, clone B3, AcAS CNV, MDR1 CNV, AP2-I CNV); 7700 ± 570 nM in assay [2] (read-out: MMV019721 mean EC50 (nM) ± SD (n), selection 1, Dd2-B2, clone E4, AcAS:A597V); 9200 ± 810 nM in assay [2] (read-out: MMV019721 mean EC50 (nM) ± SD (n), selection 2, Dd2-B2, clone E10, AcAS:A597V); 8400 nM in assay [2] (read-out: MMV019721 mean EC50 (nM) ± SD (n), selection 2, Dd2-B2, clone F12, AcAS:A597V, n=1); 9000 ± 490 nM in assay [2] (read-out: MMV019721 mean EC50 (nM) ± SD (n), selection 3, Dd2-B2, clone F2, AcAS:A597V); 11000 ± 1300 nM in assay [2] (read-out: MMV019721 mean EC50 (nM) ± SD (n), selection 3, Dd2-B2, clone F10, AcAS:A597V). For the same compound, the EC50 in assay [2] (read-out: MMV019721 mean EC50 (nM) ± SD (n), selection 4, 3D7-A10, Bulk, sequencing not determined) stood at 460 ± 100 nM; in assay [2] (read-out: MMV019721 mean EC50 (nM) ± SD (n), selection 5, 3D7-A10, clone 2B1C, AcAS:T648M) it was 7700 ± 1200 nM; in assay [2] (read-out: MMV019721 mean EC50 (nM) ± SD (n), selection 5, 3D7-A10, clone 2B1F, AcAS:T648M), 7500 ± 1400 nM; in assay [2] (read-out: MMV019721 mean EC50 (nM) ± SD (n), selection 5, 3D7-A10, clone 2B12B, AcAS:T648M) it was 7400 ± 500 nM; in assay [2] (read-out: MMV019721 mean EC50 (nM) ± SD (n), selection 6, 3D7-A10, clone 3B1D, AcAS:T648M) it was 7100 ± 1700 nM; in assay [2] (read-out: MMV019721 mean EC50 (nM) ± SD (n), selection 6, 3D7-A10, clone 3B6H, AcAS:T648M), 6800 ± 420 nM. Further, the EC50 in assay [2] (read-out: MMV019721 mean EC50 (nM) ± SD (n), selection 6, 3D7-A10, clone 3B11G, AcAS:T648M) was 6800 ± 1100 nM; in assay [2] (read-out: MMV019721 mean EC50 (nM) ± SD (n), selection 7, 3D7-A10, clone 4B3D, AcAS:T648M), 7700 ± 1700 nM; in assay [2] (read-out: MMV019721 mean EC50 (nM) ± SD (n), selection 7, 3D7-A10, clone 4B4H, AcAS:T648M), 8400 ± 680 nM; in assay [2] (read-out: MMV019721 mean EC50 (nM) ± SD (n), selection 7, 3D7-A10, clone 4B8B, AcAS:T648M), 7500 ± 1100 nM; in assay [2] (read-out: MMV019721 mean EC50 (nM) ± SD (n), selection 8, Dd2-B2, clone A3, AcAS CNV, AP2-I CNV), 1400 ± 90 nM; in assay [2] (read-out: MMV019721 mean EC50 (nM) ± SD (n), selection 10, Dd2-B2, clone C3, ACS11 INDEL(Leu24-Asp30), AP2-I CNV), 2000 ± 170 nM. In addition, the EC50 was determined as 3000 ± 250 nM in assay [2] (read-out: MMV019721 mean EC50 (nM) ± SD (n), selection 11, 3D7-A10, clone 1E9, sequencing not determined); 2700 ± 270 nM in assay [2] (read-out: MMV019721 mean EC50 (nM) ± SD (n), selection 11, 3D7-A10, clone 1E12, AcAS: Ala652Thr); 2000 ± 600 nM in assay [2] (read-out: MMV019721 mean EC50 (nM) ± SD (n), selection 11, 3D7-A10, clone 1G4, sequencing not determined); 1700 ± 340 nM in assay [2] (read-out: MMV019721 mean EC50 (nM) ± SD (n), selection 11, 3D7-A10, clone 1G8, ACS11:Thr767Ile); 8500 ± 840 nM in assay [2] (read-out: MMV019721 mean EC50 (nM) ± SD (n), selection 12, 3D7-A10, clone 2B4, AcAS:T648M); 2200 ± 770 nM in assay [2] (read-out: MMV019721 mean EC50 (nM) ± SD (n), selection 12, 3D7-A10, clone 2C6, sequencing not determined). In addition, the EC50 was 7100 ± 1300 nM in assay [2] (read-out: MMV019721 mean EC50 (nM) ± SD (n), selection 12, 3D7-A10, clone 2D11, sequencing not determined); 4000 ± 630 nM in assay [2] (read-out: MMV019721 mean EC50 (nM) ± SD (n), selection 12, 3D7-A10, clone 2G6, AcAS: Ala652Thr); 2300 ± 680 nM in assay [2] (read-out: MMV019721 mean EC50 (nM) ± SD (n), selection 13, 3D7-A10, clone 3B9, sequencing not determined); 2300 ± 530 nM in assay [2] (read-out: MMV019721 mean EC50 (nM) ± SD (n), selection 13, 3D7-A10, clone 3C7, sequencing not determined); 1500 ± 82 nM in assay [2] (read-out: MMV019721 mean EC50 (nM) ± SD (n), selection 13, 3D7-A10, clone 3D10, ACS11: Asp269Gly); 2200 ± 570 nM in assay [2] (read-out: MMV019721 mean EC50 (nM) ± SD (n), selection 13, 3D7-A10, clone 3G8, ACS11: Ser74Leu). Also, the EC50 in assay [2] (read-out: PfAcAS:A597V-resistant clone EC50, range over A597V clones) fell in the range of 7700 to 11000 nM; in assay [2] (read-out: PfAcAS:T648M EC50, range over T648M clones), 6800 to 8400 nM.

On to `O=C(NNC(=O)c1csnn1)c1ccc(Cl)cc1` [MMV084978], for which the EC50 is greater than 9600 nM in assay [3] (DD2, read-out: MMV084978 mean EC50 (nM) ± SD (n), selection 1, Dd2-B2, clone A7, AcAS:A597V); 2500 ± 42 nM in assay [3] (DD2, read-out: MMV084978 mean EC50 (nM) ± SD (n), selection 1, Dd2-B2, clone C11, sequencing not determined); 2600 ± 47 nM in assay [3] (DD2, read-out: MMV084978 mean EC50 (nM) ± SD (n), selection 1, Dd2-B2, clone E5, sequencing not determined); 2800 ± 260 nM in assay [3] (DD2, read-out: MMV084978 mean EC50 (nM) ± SD (n), selection 1, Dd2-B2, clone F1, sequencing not determined); 2100 ± 53 nM in assay [3] (DD2, read-out: MMV084978 mean EC50 (nM) ± SD (n), selection 1, Dd2-B2, clone F9, sequencing not determined); 2500 ± 24 nM in assay [3] (DD2, read-out: MMV084978 mean EC50 (nM) ± SD (n), selection 1, Dd2-B2, clone G8, AcAS:A652S). The EC50 in assay [3] (DD2, read-out: MMV084978 mean EC50 (nM) ± SD (n), selection 2, Dd2-B2, clone B8, sequencing not determined) was 2400 ± 33 nM; in assay [3] (DD2, read-out: MMV084978 mean EC50 (nM) ± SD (n), selection 2, Dd2-B2, clone C4, sequencing not determined) it was 2400 ± 1.7 nM; in assay [3] (DD2, read-out: MMV084978 mean EC50 (nM) ± SD (n), selection 2, Dd2-B2, clone E9, AcAS:A652S), 2600 ± 76 nM; in assay [3] (DD2, read-out: MMV084978 mean EC50 (nM) ± SD (n), selection 2, Dd2-B2, clone F8, sequencing not determined), 2600 ± 7 nM; in assay [3] (DD2, read-out: MMV084978 mean EC50 (nM) ± SD (n), selection 2, Dd2-B2, clone H12, AcAS:Y607C), 970 ± 41 nM.

Values taken from paper PMC8878317, “Chemogenomics identifies acetyl-coenzyme A synthetase as a target for malaria treatment and prevention” (Cell Chemical Biology, 2022).
